# Data published in patent US20230151003A1, “COMPOUNDS AND METHODS OF USE” (Exelixis, Inc., priority 2020, published 2023).
# pIC50: −log10 of the molar value.
# Molecular target: T1, Mer (Homo sapiens, UniProt Q12866)
# T1 construct: host or cells: 293A cells (Thermo Fisher #R70507)
# T1 sequence (Q12866 21-999): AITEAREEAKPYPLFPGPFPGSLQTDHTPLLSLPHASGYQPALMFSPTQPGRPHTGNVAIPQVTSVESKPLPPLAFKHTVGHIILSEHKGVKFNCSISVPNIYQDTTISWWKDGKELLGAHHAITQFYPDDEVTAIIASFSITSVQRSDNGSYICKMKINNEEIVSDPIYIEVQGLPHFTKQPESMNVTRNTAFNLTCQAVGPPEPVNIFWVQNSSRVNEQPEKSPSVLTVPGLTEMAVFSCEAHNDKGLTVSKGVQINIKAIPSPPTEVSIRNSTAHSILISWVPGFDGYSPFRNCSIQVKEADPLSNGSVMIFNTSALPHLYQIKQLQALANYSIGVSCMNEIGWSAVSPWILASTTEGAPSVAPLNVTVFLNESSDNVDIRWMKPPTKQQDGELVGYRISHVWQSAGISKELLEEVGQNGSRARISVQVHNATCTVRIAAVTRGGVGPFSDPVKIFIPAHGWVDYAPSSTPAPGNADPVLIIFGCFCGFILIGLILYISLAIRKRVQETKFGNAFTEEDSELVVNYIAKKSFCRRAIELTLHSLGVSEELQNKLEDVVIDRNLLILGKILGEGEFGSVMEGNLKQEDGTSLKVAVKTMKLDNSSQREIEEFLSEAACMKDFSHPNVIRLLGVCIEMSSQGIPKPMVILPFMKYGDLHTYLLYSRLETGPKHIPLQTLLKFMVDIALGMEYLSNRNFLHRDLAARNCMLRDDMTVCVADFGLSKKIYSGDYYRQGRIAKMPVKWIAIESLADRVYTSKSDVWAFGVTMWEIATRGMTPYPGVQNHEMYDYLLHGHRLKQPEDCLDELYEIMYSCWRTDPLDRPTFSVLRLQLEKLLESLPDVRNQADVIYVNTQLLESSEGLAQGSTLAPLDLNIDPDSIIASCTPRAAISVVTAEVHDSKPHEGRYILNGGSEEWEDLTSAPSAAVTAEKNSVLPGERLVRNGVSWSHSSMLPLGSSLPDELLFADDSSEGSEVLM
# Assay: Mer autophosphorylation ELISA in transient transfected 293A cells
# Type: cell-based
# Conditions: Table 3 Cellular Activities; MERTK-transfected 293A cells, phospho-Mer ELISA
# In short: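 293A cells transiently transfected with human MERTK DNA, replated after 24 h, then treated 1 h with 8-point compound dilutions in serum-free medium (0.3% DMSO). Lysates assayed by phospho-Mer sandwich ELISA against phospho-Mer standard; DMSO = 100%, reference inhibitor = 0% activity; IC50 by 4-parameter logistic fit.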
row,pIC50,Structure (SMILES)
1,≥ 7.00,"COc1cc2nccc(Oc3ccc(NC(=O)c4c(C)nc(C)c(-c5ccc(C)o5)c4O)cc3F)c2nc1OC [Compound 110, N-[4-[(6,7-Dimethoxy-1,5-naphthyridin-4-yl)oxy]-3-fluoro-phenyl]-4-hydroxy-2,6-dimethyl-5-(5-methyl-2-furyl)pyridine-3-carboxamide]"
2,≥ 7.00,"COc1cc2nccc(Oc3ccc(NC(=O)c4c(C)nc(C)c(-c5cc(C)cs5)c4O)cc3F)c2nc1OC [Compound 137, N-[4-[(6,7-Dimethoxy-1,5-naphthyridin-4-yl)oxy]-3-fluorophenyl]-4-hydroxy-2,6-dimethyl-5-(4-methylthiophen-2-yl)pyridine-3-carboxamide]"
3,≥ 7.00,"COc1cnc2c(Oc3ccc(NC(=O)c4cnc(C)c(-c5ccco5)c4O)cc3)ccnc2c1 [Compound 129, 5-(Furan-2-yl)-4-hydroxy-N-[4-[(7-methoxy-1,5-naphthyridin-4-yl)oxy]phenyl]-6-methylpyridine-3-carboxamide]"
4,≥ 7.00,"COc1cnc2c(Oc3ccc(NC(=O)c4cnc(C)c(-c5ccoc5)c4O)cc3F)ccnc2c1 [Compound 99, N-[3-Fluoro-4-[(7-methoxy-1,5-naphthyridin-4-yl)oxy]phenyl]-5-(3-furyl)-4-hydroxy-6-methyl-pyridine-3-carboxamide]"
5,≥ 7.00,"COc1cc2nccc(Oc3ccc(NC(=O)c4c(C)nc(C)c(-c5ccc(C(C)C)o5)c4O)cc3F)c2nc1OC [Compound 148, N-[4-[(6,7-Dimethoxy-1,5-naphthyridin-4-yl)oxy]-3-fluorophenyl]-4-hydroxy-2,6-dimethyl-5-(5-propan-2-ylfuran-2-yl)pyridine-3-carboxamide]"
6,≥ 7.00,COc1cc2nccc(Oc3ccc(NC(=O)c4cnc(C)c(-c5cc(C(F)(F)F)nn5C)c4O)cc3F)c2nc1OC [Compound 105]
7,≥ 7.00,"COc1cnc2c(Oc3ccc(NC(=O)c4c(C)n(C)c(C)c(-c5cccs5)c4=O)cc3F)ccnc2c1 [Compound 166, N-[3-Fluoro-4-[(7-methoxy-1,5-naphthyridin-4-yl)oxy]phenyl]-1,2,6-trimethyl-4-oxo-5-thiophen-2-ylpyridine-3-carboxamide]"
8,≥ 7.00,"COc1cc2nccc(Oc3ccc(NC(=O)c4cnc(C)c(-c5sccc5C)c4O)cc3F)c2nc1OC [Compound 103, N-[4-[(6,7-Dimethoxy-1,5-naphthyridin-4-yl)oxy]-3-fluoro-phenyl]-4-hydroxy-6-methyl-5-(3-methyl-2-thienyl) pyridine-3-carboxamide]"
9,≥ 7.00,"COc1cc2nccc(Oc3ccc(NC(=O)c4c(C)n(C)c(C)c(-c5cccs5)c4=O)cc3F)c2nc1OC [Compound 168, N-[4-[(6,7-Dimethoxy-1,5-naphthyridin-4-yl)oxy]-3-fluorophenyl]-1,2,6-trimethyl-4-oxo-5-thiophen-2-ylpyridine-3-carboxamide]"
10,≥ 7.00,"COCc1nc(C)c(-c2ccc(C)o2)c(O)c1C(=O)Nc1ccc(Oc2ccnc3cc(OC)c(OC)nc23)c(F)c1 [Compound 117, N-[4-[(6,7-Dimethoxy-1,5-naphthyridin-4-yl)oxy]-3-fluorophenyl]-4-hydroxy-2-(methoxymethyl)-6-methyl-5-(5-methylfuran-2-yl)pyridine-3-carboxamide]"

# Further lines, the compound ahead of its results:
row,Structure (SMILES),pIC50
1,"COc1cc2nccc(Oc3ccc(NC(=O)c4c(C)nc(C)c(-c5cc(C)nn5C)c4O)cc3F)c2nc1OC [Compound 109, N-[4-[(6,7-Dimethoxy-1,5-naphthyridin-4-yl)oxy]-3-fluoro-phenyl]-5-(2,5-dimethylpyrazol-3-yl)-4-hydroxy-2,6-dimethyl-pyridine-3-carboxamide]",≥ 7.00
2,"COc1cc2nccc(Oc3ccc(NC(=O)c4c(C)n(C)c(C)c(-c5cccs5)c4=O)cc3)c2nc1OC [Compound 167, N-[4-[(6,7-Dimethoxy-1,5-naphthyridin-4-yl)oxy]phenyl]-1,2,6-trimethyl-4-oxo-5-thiophen-2-ylpyridine-3-carboxamide]",≥ 7.00
3,"COc1cc2nccc(Oc3ccc(NC(=O)c4c(C)nc(C)c(-c5ccnn5C)c4O)cc3F)c2nc1OC [Compound 108, N-[4-[(6,7-Dimethoxy-1,5-naphthyridin-4-yl)oxy]-3-fluoro-phenyl]-4-hydroxy-2,6-dimethyl-5-(2-methylpyrazol-3-yl) pyridine-3-carboxamide]",≥ 7.00
4,"COCc1nc(C)c(-c2ccccn2)c(O)c1C(=O)Nc1ccc(Oc2ccnc3cc(OC)c(OC)nc23)c(F)c1 [Compound 195, N-[4-[(6,7-Dimethoxy-1,5-naphthyridin-4-yl)oxy]-3-fluorophenyl]-4-hydroxy-2-(methoxymethyl)-6-methyl-5-pyridin-2-ylpyridine-3-carboxamide]",≥ 7.00
5,"COc1cc2nccc(Oc3ccc(NC(=O)c4cnc(C)c(-c5ccc(C)s5)c4O)cc3F)c2nc1OC [Compound 94, N-[4-[(6,7-Dimethoxy-1,5-naphthyridin-4-yl)oxy]-3-fluoro-phenyl]-4-hydroxy-6-methyl-5-(5-methyl-2-thienyl) pyridine-3-carboxamide]",≥ 7.00
6,"COc1cc2nccc(Oc3ccc(NC(=O)c4c(C)ncc(-c5ccsc5)c4O)cc3F)c2nc1OC [Compound 127, N-[4-[(6,7-Dimethoxy-1,5-naphthyridin-4-yl)oxy]-3-fluorophenyl]-4-hydroxy-2-methyl-5-thiophen-3-ylpyridine-3-carboxamide]",≥ 7.00
7,"COc1cnc2c(Oc3ccc(NC(=O)c4cnc(C)c(-c5ccc(C)s5)c4O)cc3F)ccnc2c1 [Compound 101, N-[3-Fluoro-4-[(7-methoxy-1,5-naphthyridin-4-yl)oxy]phenyl]-4-hydroxy-6-methyl-5-(5-methyl-2-thienyl) pyridine-3-carboxamide]",≥ 7.00
8,"COc1cc2nccc(Oc3ccc(NC(=O)c4c(C)nc(C)c(-c5ccc(C6CC6)o5)c4O)cc3F)c2nc1OC [Compound 155B, 5-(5-Cyclopropylfuran-2-yl)-N-[4-[(6,7-dimethoxy-1,5-naphthyridin-4-yl)oxy]-3-fluorophenyl]-4-hydroxy-2,6-dimethylpyridine-3-carboxamide]",≥ 7.00
9,"COc1cc2nccc(Oc3ccc(NC(=O)c4cnc(C)c(-c5cnoc5)c4O)cc3F)c2nc1OC [Compound 140, N-[4-[(6,7-Dimethoxy-1,5-naphthyridin-4-yl)oxy]-3-fluorophenyl]-4-hydroxy-6-methyl-5-(1,2-oxazol-4-yl)pyridine-3-carboxamide]",≥ 7.00
10,"COc1cc2nccc(Oc3ccc(NC(=O)c4cn(CCF)c(C)c(-c5ccco5)c4=O)cc3F)c2nc1OC [Compound 333, N-[4-[(6,7-Dimethoxy-1,5-naphthyridin-4-yl)oxy]-3-fluorophenyl]-1-(2-fluoroethyl)-5-(furan-2-yl)-6-methyl-4-oxopyridine-3-carboxamide]",≥ 7.00
11,"COc1cc2nccc(Oc3ccc(NC(=O)c4cnc(C)c(-c5ccsc5)c4O)cc3F)c2nc1OC [Compound 93, N-[4-[(6,7-Dimethoxy-1,5-naphthyridin-4-yl)oxy]-3-fluoro-phenyl]-4-hydroxy-6-methyl-5-(3-thienyl)pyridine-3-carboxamide]",≥ 7.00
12,"C=Cc1ccc(-c2c(C)ncc(C(=O)Nc3ccc(Oc4ccnc5cc(OC)c(OC)nc45)c(F)c3)c2O)o1 [Compound 151, N-[4-[(6,7-Dimethoxy-1,5-naphthyridin-4-yl)oxy]-3-fluorophenyl]-5-(5-ethenylfuran-2-yl)-4-hydroxy-6-methylpyridine-3-carboxamide]",≥ 7.00
13,"CCc1ccc(-c2c(C)nc(C)c(C(=O)Nc3ccc(Oc4ccnc5cc(OC)c(OC)nc45)c(F)c3)c2O)o1 [Compound 147, N-[4-[(6,7-Dimethoxy-1,5-naphthyridin-4-yl)oxy]-3-fluorophenyl]-5-(5-ethylfuran-2-yl)-4-hydroxy-2,6-dimethylpyridine-3-carboxamide]",≥ 7.00
14,COc1cc2nccc(Oc3ccc(NC(=O)c4cnc(C)c(-c5ccnn5C)c4O)cc3F)c2nc1OC [Compound 104],≥ 7.00
15,"C=CCc1ccc(-c2c(C)ncc(C(=O)Nc3ccc(Oc4ccnc5cc(OC)c(OC)nc45)c(F)c3)c2O)o1 [Compound 155, N-[4-[(6,7-Dimethoxy-1,5-naphthyridin-4-yl)oxy]-3-fluorophenyl]-4-hydroxy-6-methyl-5-(5-prop-2-enylfuran-2-yl)pyridine-3-carboxamide]",≥ 7.00
16,"COc1cc2nccc(Oc3ccc(NC(=O)c4c(C)nc(C)c(-c5ccoc5)c4O)cc3F)c2nc1OC [Compound 112, N-[4-[(6,7-Dimethoxy-1,5-naphthyridin-4-yl)oxy]-3-fluoro-phenyl]-5-(3-furyl)-4-hydroxy-2,6-dimethyl-pyridine-3-carboxamide]",≥ 7.00
